Converted amounts (≈) assume the structure as drawn. Where two headings read alike, the source gives them in different places.
Legend:
[1] = Determination of the solubility in organic solvents; type: physicochemical; conditions: for solubility: organic solvent or mixture, thermodynamic from solid; for solubility / Solubility (g/ml) Xylene / Solubility (g/ml) DMF / Solubility (g/ml) THF / Solubility (g/ml) Chloroform / Solubility (g/ml) Dichloromethane: 5 ml, added until saturation; for Solubility (g/ml) Xylene: solvent xylene
Protocol: (Determination of the Solubility)
Respectively, 5 ml of the solvents of THF, DMF, xylene, chloroform and dichloromethane were measured and poured into 20 ml of tubular bottoms with screw caps. […] The solubility (g/ml) to the respective solvent was determined from the weight of the triarylamine dimer derivative added until saturation.

[2] = Differential scanning calorimetry (DSC), glass transition point; type: physicochemical; conditions: determined by DSC
Text: (Differential Scanning Calorimetry (DSC))
The results of the glass transition point (Tg) determined by DSC of the triarylamine dimer derivatives obtained in Examples 1 to 6 are shown in Table 3.

[3] = chloroform, solvent chloroform, read-out: Solubility (g/ml) Chloroform
[4] = dichloromethane, solvent dichloromethane, read-out: Solubility (g/ml) Dichloromethane

SMILES: Cc1ccc(N(c2ccccc2)c2ccc(-c3ccc(N(c4ccccc4)c4ccc(C)cc4)cc3)cc2)cc1 [Comparative Example2, N,N′-diphenyl-N,N′-bis(4-tolyl)-4,4′-diaminobiphenyl]
- solubility ([1]; DMF, solvent DMF, read-out: Solubility (g/ml) DMF): 0.036 g/mL (≈ 69.7 mM)
- solubility ([1]; THF, solvent THF, read-out: Solubility (g/ml) THF): 0.413 g/mL (≈ 799 mM)
- solubility [1, 3]: 0.613 g/mL (≈ 1190 mM)
- solubility [1, 4]: 0.397 g/mL (≈ 768 mM)
- Solubility (g/ml) Xylene [1]: 0.152 g/mL (≈ 294 mM)

SMILES: c1ccc(N(c2ccc(-c3ccc(N(c4ccccc4)c4cccc5ccccc45)cc3)cc2)c2cccc3ccccc23)cc1 [Comparative Example4, N,N′-diphenyl-N,N′-bis(1-naphthyl)-4,4′-diaminobiphenyl]
- Solubility (g/ml) DMF ([1]; solvent DMF): 0.001 g/mL (≈ 1.7 mM)
- Solubility (g/ml) THF ([1]; solvent THF): 0.009 g/mL (≈ 15.3 mM)
- Solubility (g/ml) Chloroform ([1]; solvent chloroform): 0.024 g/mL (≈ 40.8 mM)
- Solubility (g/ml) Dichloromethane ([1]; solvent dichloromethane): 0.021 g/mL (≈ 35.7 mM)
- Solubility (g/ml) Xylene [1]: 0.002 g/mL (≈ 3.4 mM)

SMILES: c1ccc(N(c2ccc(-c3ccc(N(c4ccccc4)c4ccc5ccccc5c4)cc3)cc2)c2ccc3ccccc3c2)cc1 [Comparative Example5, N,N′-diphenyl-N,N′-bis(2-naphthyl)-4,4′-diaminobiphenyl]
- Solubility (g/ml) DMF ([1]; solvent DMF): 0.012 g/mL (≈ 20.4 mM)
- Solubility (g/ml) THF ([1]; solvent THF): 0.235 g/mL (≈ 399 mM)
- Solubility (g/ml) Chloroform ([1]; solvent chloroform): 0.395 g/mL (≈ 671 mM)
- Solubility (g/ml) Dichloromethane ([1]; solvent dichloromethane): 0.195 g/mL (≈ 331 mM)
- Solubility (g/ml) Xylene [1]: 0.103 g/mL (≈ 175 mM)

SMILES: c1ccc(N(c2ccc(-c3ccc(N(c4ccccc4)c4ccc5ccccc5c4)cc3)cc2)c2ccc3ccccc3c2)cc1 [Comparative Example6, N,N′-diphenyl-N,N′-bis(2-naphthyl)-4,4′-diaminobiphenyl]
- Solubility (g/ml) DMF ([1]; solvent DMF): 0.033 g/mL (≈ 56.1 mM)
- Solubility (g/ml) THF ([1]; solvent THF): 0.270 g/mL (≈ 459 mM)
- Solubility (g/ml) Chloroform ([1]; solvent chloroform): 0.452 g/mL (≈ 768 mM)
- Solubility (g/ml) Dichloromethane ([1]; solvent dichloromethane): 0.226 g/mL (≈ 384 mM)
- Solubility (g/ml) Xylene [1]: 0.162 g/mL (≈ 275 mM)

SMILES: c1ccc(N(c2ccc(-c3ccc(N(c4ccccc4)c4ccc5ccccc5c4)cc3)cc2)c2ccc3ccccc3c2)cc1 [Comparative Example7, N,N′-diphenyl-N,N′-bis(2-naphthyl)-4,4′-diaminobiphenyl]
- Solubility (g/ml) DMF ([1]; solvent DMF): 0.028 g/mL (≈ 47.6 mM)
- Solubility (g/ml) THF ([1]; solvent THF): 0.202 g/mL (≈ 343 mM)
- Solubility (g/ml) Chloroform ([1]; solvent chloroform): 0.368 g/mL (≈ 625 mM)
- Solubility (g/ml) Dichloromethane ([1]; solvent dichloromethane): 0.209 g/mL (≈ 355 mM)
- Solubility (g/ml) Xylene [1]: 0.155 g/mL (≈ 263 mM)

SMILES: Cc1cccc(N(c2ccccc2)c2ccc(-c3ccc(N(c4ccccc4)c4cccc(C)c4)cc3)cc2)c1 [Example1, N,N′-diphenyl-N,N′-bis(3-tolyl)-4,4′-diaminobiphenyl]
- Glass Transition Point(Tg) [2]: 63.2 Degrees C.

SMILES: Cc1ccc(N(c2ccccc2)c2ccc(-c3ccc(N(c4ccccc4)c4ccc(C)cc4)cc3)cc2)cc1 [Example2, N,N′-diphenyl-N,N′-bis(4-tolyl)-4,4′-diaminobiphenyl]
- Solubility (g/ml) DMF ([1]; solvent DMF): 0.060 g/mL (≈ 116 mM)
- Solubility (g/ml) THF ([1]; solvent THF): 0.732 g/mL (≈ 1420 mM)
- Solubility (g/ml) Chloroform ([1]; solvent chloroform): 0.892 g/mL (≈ 1730 mM)
- Solubility (g/ml) Dichloromethane ([1]; solvent dichloromethane): 0.696 g/mL (≈ 1350 mM)
- Solubility (g/ml) Xylene [1]: 0.334 g/mL (≈ 646 mM)
- Glass Transition Point(Tg) [2]: 75.0 Degrees C.

SMILES: c1ccc(N(c2ccc(-c3ccc(N(c4ccccc4)c4cccc5ccccc45)cc3)cc2)c2cccc3ccccc23)cc1 [Example4, N,N′-diphenyl-N,N′-bis(1-naphthyl)-4,4′-diaminobiphenyl]
- solubility [1, 3]: 0.043 g/mL (≈ 73 mM)
- solubility [1, 4]: 0.029 g/mL (≈ 49.3 mM)
- Solubility (g/ml) DMF ([1]; solvent DMF): 0.007 g/mL (≈ 11.9 mM)
- Solubility (g/ml) THF ([1]; solvent THF): 0.028 g/mL (≈ 47.6 mM)
- Solubility (g/ml) Xylene [1]: 0.009 g/mL (≈ 15.3 mM)
- Glass Transition Point(Tg) [2]: 98.8 Degrees C.

SMILES: c1ccc(N(c2ccc(-c3ccc(N(c4ccccc4)c4ccc5ccccc5c4)cc3)cc2)c2ccc3ccccc3c2)cc1 [Example5, N,N′-diphenyl-N,N′-bis(2-naphthyl)-4,4′-diaminobiphenyl]
- Solubility in organic solvent (in words) [1]: very high solubility
- solubility [1, 3]: 0.632 g/mL (≈ 1070 mM)
- Solubility compared with alpha-NPD (times higher) ([1]; organic solvents of Table 2): ten to several hundreds times higher
- Solubility (g/ml) DMF ([1]; solvent DMF): 0.301 g/mL (≈ 511 mM)
- Solubility (g/ml) THF ([1]; solvent THF): > 0.795 g/mL
- Solubility (g/ml) Dichloromethane ([1]; solvent dichloromethane): 0.471 g/mL (≈ 800 mM)
- Solubility (g/ml) Xylene [1]: 0.558 g/mL (≈ 948 mM)
- Glass Transition Point(Tg) [2]: 99.4 Degrees C.

SMILES: c1ccc(N(c2ccc(-c3ccc(N(c4ccccc4)c4ccc5ccccc5c4)cc3)cc2)c2ccc3ccccc3c2)cc1 [Example6, N,N′-diphenyl-N,N′-bis(2-naphthyl)-4,4′-diaminobiphenyl]
- Solubility (g/ml) THF ([1]; solvent THF): > 0.795 g/mL
- Glass Transition Point(Tg) [2]: 99.4 Degrees C.
